Data taken from PMC4575030 (PLoS ONE, 2015).

Experiments:
[1] = tested on: rat spinal nerve ligation model; assay: Tactile allodynia following spinal nerve ligation (SNL); type: in vivo; details: 30 mg/kg, 120 min after dosing, day 21 after SNL; not statistically significant (p = 0.99)
From the text: A decrease in tactile response threshold, using calibrated von Frey filaments (Stoelting Co., Wood Dale, IL), was used as a measure of tactile allodynia following spinal nerve ligation (SNL). Prior to surgery, each animal underwent baseline testing to determine suitability for the assay. Briefly, animals were placed on a raised platform with a grid meshed floor. The distance between the mesh was ¼”. Once acclimated, each animal received a series of trials according to the up-down method described by Dixon. Animals showing a response to less than 4 g were deemed already sensitive to the stimulus and were removed. A maximal fiber of 15 g was employed as a cut-off threshold. Surgery was then performed with a procedure slightly modified by that reported by Kim and Chung. Briefly, the left L5 spinal nerve was carefully isolated from the surrounding tissue. Using 5–0 silk suture, a tight ligature was placed around L5 nerve. Muscle and skin were then closed using 4–0 absorbable suture and wound clips. Animals were allowed to recover and were carefully monitored for seven days to ensure proper healing and ensure there was no mutilation of the affected limb. On day 21 post-surgery, animals were again tested to ensure the development of tactile allodynia. […] Animals were then randomized into groups and dosed with the test compound, gabapentin, or vehicle and assessed as stated above. […]

[2] = tested on: rat CFA model of pain; assay: CFA-induced thermal hyperalgesia; type: in vivo; details: 120 min after dosing, 24 h after CFA
Procedure: CFA-induced thermal hyperalgesia was measured using the Thermal Plantar Analgesia Instrument (Ugo Basile, Italy). Intensity of the radiant heat stimulus was adjusted to achieve a withdrawal latency of approximately 13 s in naïve animals. On test day one, animals were placed on the apparatus in their individual testing chambers with an absorbent towel at the bottom and allowed to habituate for at least 30 minutes. The towel was then removed and animals were allowed to acclimate for at least 15 minutes more. After habituation, animals were placed back in their home cages until the following day. On test day two, animals were placed back in the testing chambers until calm (typically 20 minutes). The thermal device was positioned on the center of the left hind paw and the test was started. The time for the animal to withdraw its paw from the thermal stimulus was recorded. A cut-off of 30 seconds was used to prevent tissue damage. Few trials went past 20 seconds and none past 25 seconds. This procedure was repeated for three trials per animal, each separated by at least 5 min, and trials were averaged to determine baseline withdrawal latencies. After determining baseline measures, each animal received an injection of 50 μl CFA (1:1 emulsion with PBS, Sigma, St. Louis, MO) into the plantar side of the left hind paw with a 26 gauge needle. Animals were then placed back in their home cages until the following day. Approximately 24 h after the CFA injection, withdrawal latencies to heat were determined as described above. Animals were then randomized based on their Post-CFA baseline score and treated with the test compound or vehicle. […] The experimenter was blinded to drug treatment during this assay. Percent return to baseline latency was used as the endpoint of the assay.

`CC(=O)Nc1cccc(Nc2ncnc(N3CCC(OCc4ccc(OC(F)(F)F)cc4)CC3)n2)c1C` [Compound 52, N-(2-methyl-3-((4-(4-((4-(trifluoromethoxy)benzyl)oxy)-1-piperidinyl)-1,3,5-triazin-2-yl)amino)phenyl)acetamide] was tested, and the “Reversal of tactile allodynia compared to the vehicle group” value [1] was 15%, the “Average reversal of thermal hyperalgesia compared to baseline” value ([2]; 10 mg/kg p.o.) was 40% and the “Average reversal of thermal hyperalgesia compared to baseline” value ([2]; 30 mg/kg p.o.) was 53%.
